Data from patent publication US6242481A, “Methods for the inhibition of angiogenesis with arglabin” (priority 1999, dated 2001).
In brackets after ≈: the same amount, converted by molar mass.

Key:
[1] = tested on: tumors cells; details: cited from earlier work
[2] = tested on: corneal neovascularization (corneal micropockets); test: neovascularization experiment using corneal micropockets in mice; type: in vivo; details: mouse corneal micropockets; Table 1
Protocol: (§1) Pellets for implantation into rabbit corneas were made by mixing 110 μl of saline containing 12 μg of recombinant bFGF (Takeda Pharmaceuticals-Japan) with 40 mg of sucralfate (Bukh Meditec-Denmark); this suspension was added to 80 μl of 12% hydron (Interferon Sciences) in ethanol. 10 μl aliquots of this mixture was then pipetted onto teflon pegs and allowed to dry producing approximately 17 pellets. A pellet was implanted into corneal micropockets of each eye of an anesthetized female New Zealand white rabbit, 2 mm from the limbus followed by topical application of erythromycin ointment onto the surface of the cornea. The animals were fed daily from 2 days post-implantation by gastric lavage with cytochalasin E or the aldehyde methyl ester derivative of cytochalasin E suspended in 0.5% carboxymethyl cellulose or 0.5% carboxymethyl cellulose alone. The animals were examined with a slit lamp every other day in a masked manner by the same corneal specialist. The area of corneal neovascularization was determined by measuring with a reticule the vessel length (L) from the limbus and the number of clock hours (C) of limbus involved. A formula was used to determine the area of a circular band segment: C/12*3.1416 [r^2 -(r-L)^2 ] where r=6 mm the measured radius of the rabbit cornea.
(§2) The neovascularization experiment described in Example 2 was repeated using the corneal micropockets in mice. The compounds tested were cytochalasin E, astaphiatin, arglabin, epoxycytochalasin-H, ozonolyzed cytochalasin-E, and precursor cytochalasin-E. The results of these compound's ability to inhibit angiogenesis are shown in Table 1.

[3] = tested on: Lewis lung carcinoma; test: Lewis lung experiment, inhibition of tumor growth (Example 6); type: in vivo, mice (C57BI6/J); details: 2.0 mg/kg qd (printed 'od' for methanolyzed compound)
Protocol: (§3) Syngeneic C57BI6/J six-week-old male mice were injected (subcutaneous dorsum) with 1×10^6 tumor cells. Visible tumors first appeared after 3-4 days. When tumors were approximately 1500 mm^3 in size, mice were randomized into two groups. The primary tumor was completely excised in the first group and left intact in the second group after a sham operation. Although tumors from 500 mm^3 to 3000 mm^3 inhibited growth of metastases, 1500 mm^3 was the largest primary tumor that could be safely resected with high survival and no local recurrence.
The Lewis lung experiment of Example 5 was repeated using cytochalasin E and methanolyzed cytochalasin E. The results of this experiment are presented in the table below.

[4] = type: in vivo; details: mice; Table 1
Text: as §2

[5] = tested on: Bovine capillary endothelial (BCE) cells; test: inhibition of bovine capillary endothelial cell proliferation (BCE), compared to NIH3T3 fibroblasts; type: cell-based; details: for less active (inhibition of endothelial cell proliferation): relative to cytochalasin E
Protocol: (§4) Bovine capillary endothelial (BCE) cells and Swiss mouse embryo fibroblast cells (NIH3T3) were isolated as previously described (Folkman, , et al., Proc. Nat. Acad. Sci USA., 76:5217-21(1979)) and maintained in DMEM supplemented with 10% heat-inactivated bovine calf serum (BCS), antibiotics, and 3 ng/ml recombinant human bFGF (Scios Nova, Mountainview,Calif.). Monolayers of the cells growing in 6-well plates were dispersed in a 0.05% trypsin solution. The cells were re-suspended with DMEM containing 10% BCS. Approximately 12,500 cells in 0.5 ml were added to each well of gelatinized 24-well tissue culture plates and incubated at 37° C. (in 10% CO2) for 24 hours. The medium was replaced with […] of fresh DMEM containing 5% BCS. Samples of cytochalasin E, cytochalasin A, and cytochalasin H were added to each well in triplicate. After 30 minutes of incubation, bFGF was added to a final concentration of 1 ng/ml. After 72 hours of incubation, cells were trypsinized, re-suspended in Hematall (Fisher Scientific, Pittsburg, Pa.) and counted with a Coulter counter.
FIG. 2 is a graph showing the inhibition of bovine capillary endothelial cell proliferation (BCE) (squares) compared to Swiss mouse embryo fibroblast cells (NIH3T3). […] The ordinate measures drug concentration in grams per milliliter.

[6] = tested on: basic fibroblast growth factor (bFGF) driven corneal neovascularization; test: rabbit cornea assay, bFGF driven corneal neovascularization; type: in vivo, rabbit (New Zealand white); details: 2 mg/kg/day, text says subcutaneously administered (method: gastric lavage)
Protocol: as §1

[7] = tested on: Lewis lung carcinoma; test: Lewis lung carcinoma tumor growth (Example 5); type: in vivo, mice (C57BI6/J); details: 2 mg/kg/day
Protocol: as §3
This experimental model gave reproducible data and the experiment described is reproducible. This tumor is labeled "Lewis lung carcinoma--low metastatic" (LLC-Low).

[8] = tested on: tumor growth and metastases; details: cited from earlier work
[9] = tested on: vascular endothelial cell; details: cited from earlier work
[10] = tested on: cells; details: cited from earlier work
[11] = tested on: Bovine capillary endothelial (BCE) cells; test: inhibition of bovine capillary endothelial cell proliferation (BCE), cytochalasin E vs epoxycytochalasin J; type: cell-based; details: compared with cytochalasin E; FIG. 3
Protocol: as §4, with “(BCE)” for “(BCE) cells and Swiss mouse embryo fibroblast cells (NIH3T3)”, “76:5217-21 (1979))” for “76:5217-21(1979))”, “Mountainview, Calif.).” for “Mountainview,Calif.).”, “E” for “E, cytochalasin A,”, “epoxycytochalasin J” for “cytochalasin H”
The ordinate measures drug concentration in grams per milliliter.

[12] = tested on: cells; details: cited from earlier work; remark: listed apart in the source
[13] = tested on: tumor-induced angiogenesis in mouse dermis; details: cited from earlier work

Compound: bFGF: basic fibroblast growth factor (bFGF)
- mitogen for the tumor cells in vitro [1]: not a mitogen

Compound: CC1C/C=C/C2C3OC3(C)C(C)C3C(Cc4ccccc4)NC(=O)C23OC(=O)O/C=C/C(C)(O)C1=O [cytochalasin E, (6S,7S,16R,18R)-6,7-epoxy-18-hydroxy-16-methyl-10-phenyl-21 ,23-dioxa-[13]cytochalasa-13(E), 19(E)-diene-1,17,22-trione]
- % Inhibition (ability to inhibit angiogenesis) [2]: 45.00%
- Inhibition of Tumor Growth, T/C [3]: 0.28
- % Weight Loss [4]: 0.00%
- IC50 ([5]; Bos taurus, Endothelial cell, bFGF 1 ng/ml, 72 hours): 0.002 ng/mL (≈ 0.00404 nM)
- inhibition of bFGF driven corneal neovascularization [6]: 50%
- inhibited tumor growth [7]: 74%

Compound: CO[C@@H]1[C@H](OC(=O)NC(=O)CCl)CC[C@]2(CO2)[C@H]1[C@@]1(C)O[C@@H]1CC=C(C)C [AGM-1470]
- inhibition of tumor growth and metastases in vivo [8]: inhibits tumor growth and metastases in vivo
- activity in inhibiting tumor cell proliferation in vitro ([9]; compared with inhibition in vivo): much less active
- half-maximal inhibition of vascular endothelial cell proliferation at lower concentration than tumor cell proliferation ([9]; endothelial vs tumor cell proliferation): 4 logs

Compound: CC1C2C(Cc3ccccc3)NC(=O)C2(O)C(CO)C2OC12C (stereo not drawn) [Ozonolyzed Cytochalasin-E]
- % Inhibition (ability to inhibit angiogenesis) [2]: 20.00%
- % Weight Loss [4]: 4.00%

Compound: C=C1C(C)C2C(Cc3ccccc3)NC(=O)C23OC(=O)/C=C/C(=O)CCCC(C)C/C=C/C3C1O (stereo not drawn) [cytochalasin A]
- less active (inhibition of endothelial cell proliferation) [5]: 1000 fold

Compound: C=C1C(C)C2C(Cc3ccccc3)NC(=O)C23OC(=O)/C=C/C(O)CCCC(C)C/C=C/C3C1O (single isomer, unassigned) [cytochalasin B]
- changes in cell structure [10]: a number of morphological changes in cell structure

Compound: C=C1C(=O)O[C@@H]2[C@H]3C(C)=CC[C@@]34O[C@@]4(C)CC[C@@H]12 [Arglabin]
- % Inhibition (ability to inhibit angiogenesis) [2]: 22.72%
- % Weight Loss [4]: 2.69%

Compound: CC(=O)O[C@@H]1/C=C/[C@](C)(O)C[C@@H](C)C/C=C/[C@H]2[C@@H]3O[C@]3(C)[C@@H](C)[C@H]3[C@H](Cc4ccccc4)NC(=O)[C@@]312 [Epoxycytochalasin-H]
- % Inhibition (ability to inhibit angiogenesis) [2]: 27.35%
- % Weight Loss [4]: 2.46%

Compound: C[C@H]1C/C=C/[C@H]2[C@@H]3O[C@]3(C)[C@@H](C)[C@@H]3[C@H](Cc4ccccc4)NC(=O)[C@]32[C@H](O)/C=C/[C@](C)(O)C1 [epoxycytochalasin J]
- effectiveness as inhibitor of bovine capillary endothelial cell proliferation [11]: even more effective inhibitor

Compound: C=C1C(C)C2C(Cc3ccccc3)NC(=O)C23C(OC(C)=O)/C=C/C(C)(O)CC(C)C/C=C/C3C1O (stereo not drawn) [cytochalasin H]
- disaggregation of cells [12]: produces disaggregation of cells
- less active (inhibition of endothelial cell proliferation) [5]: 1000 fold

Compound: C=C1C(=O)OC2C1CCC(=C)C1CC3OC3(C)C12 (stereo not drawn) [Astaphiatin]
- % Inhibition (ability to inhibit angiogenesis) [2]: 33.56%
- % Weight Loss [4]: 6.92%

Compound: interferon alpha
- inhibition of tumor-induced angiogenesis [13]: inhibit tumor-induced angiogenesis
